According to patent US11279708B2, “Amidino- and amino-rocaglates as novel translation inhibitors and anticancer agents” (priority 2019, dated 2022):

Tests used:
[1] = system: MDA-MB-231 breast cancer cells; assay: SRB cell viability assay; format: cell-based; settings: MDA-MB-231, SRB assay; read-out: IC50, cytotoxicity
Excerpt: Translation Inhibition by Amidino-Rocaglates Induces Cytotoxicity. We next evaluated amidino-rocaglates in an SRB cell viability assay using MDA-MB-231 breast cancer cells for cellular readout of translation inhibition (FIG. 16). In particular, (−)-9b, (−)-9aa, and (+)-9aa were compared with rocaglate hydroxamate (−)-23. […] The inspiring high-potency of amidino-rocaglates underscores their utility as promising agents for anticancer treatment combined with the appropriate formulation and drug-delivery strategies. […] Meanwhile, amide carbonyls of 9z and 9aa served as H-bond acceptors likely improving interactions with Gln195 of eIF4A, although this awaits structural confirmation. […] Our studies further illustrate the power of chemical synthesis enabling structural and biological improvement of complex natural products using targeted modifications. Additional biological studies of amidino-, amino-rocaglates, and related compounds including RNA binding studies are currently in progress and will be reported in due course.

[2] = system: eIF4A-dependent translation; assay: in vitro translation assay, bicistronic FF/HCV/Ren reporter mRNA in Krebs-2 extracts; format: biochemical; settings: screen at 2 μM compound
Experimental: Structure-Activity Relationships. With a number of amidino-rocaglates and amino-rocaglates in hand, we evaluated their inhibition of eIF4A-dependent translation using an in vitro assay as depicted in FIG. 14, where a bicistronic reporter mRNA was designed for translation in Krebs-2 extracts. In FIG. 14 the following description applies (a) IC50 was determined from fitted sigmoid curves; […] indicates the concentration of compound that inhibits cap-dependent translation by 50%, which was normalized by cap-independent translation. For its determination, the bicistronic reporter FF/HCV/Ren mRNA was used to produce Firefly luciferase (cap-dependent) and Renilla luciferase (cap-independent) in Krebs-2 extracts in the presence of indicated compounds at various concentrations. In particular, translation of Firefly luciferase (FF) is cap-dependent and depends on eIF4A activity; in contrast, translation of Renilla luciferase (REN) utilizes the HCV internal ribosome entry site (IRES) which functions independently of eIF4A. IC50's were determined by the inhibition of FF relative to REN obtained in the presence of compound relative to vehicle controls and normalized to REN as an internal control. […] In accordance with the eIF4A-RNA-rocaglamide (2) co-crystallographic analysis (FIG. 4), the amide carbonyl of 2 interacts with Gln195 of eIF4A as a H-bond acceptor, while the tertiary hydroxyl of 2 serves as a H-bond donor to an RNA base. […] To further verify the hypothesis, amidino-rocaglates (pKa of N—H˜26.7-30.7 in DMSO, strong H-bond donors) and amino-rocaglates (pKa of N—H˜36 to 44 in DMSO, weak H-bond donors) were next evaluated. […] Conversely, benzyl amidine 9e had IC50=60 nM, whereas the methylene tether may allow conformational adjustment to avoid rigid repulsion in the binding pocket.
The rocaglate collection was also tested in in vitro translation assays using cell-free extracts with a previously described bicistronic mRNA containing the HCV IRES, which is not dependent on eIF4A activity and served as an internal control (FIG. 19C).
In Vitro Translation Assays. In vitro translation assays performed in Krebs-2 cell extracts were supplemented with 5 mM MgCl2, 30 mM Tris-HCl (pH 7.5), 1.5 mM ATP, 0.1 mM GTP, 0.6 mM CTP, 10 mM dipotassium creatine phosphate, 80 μg/mL creatine kinase, and 0.04 mM amino acids. The specified mRNA reporters were added to each reaction at a final concentration of 10 ng/μL. The translation reactions were incubated with or without compound for 60 minutes at 30° C. prior to the measurement of luciferase activities.
FIGS. 19A-19C. Rocaglate activity profiling. 19A. Assessing eIF4A1:poly r(AG)8 (SEQ ID NO: 2) RNA binding by FP in the presence of 10 μM rocaglate. Values are expressed relative to vehicle controls and data is rank ordered. n=3±SD. 19B. The change in polarization obtained with eIF4A1:poly r(AG)8 (SEQ ID NO: 2) and eIF4A2:poly r(AG)8 (SEQ ID NO: 2) RNA. Pearson r=0.814; p<0.0001. 19C. Inhibition of cap-dependent translation by rocaglates was measured using the indicated mRNA bicistronic reporter (4 ng/ul) in Krebs-2 extracts at a final compound concentration of 2 μM. n=3±SD.
FIG. 35A-35E are plots showing dose-response curve of FF-HCV-Ren mRNA translation in Krebs extracts with IC50s shown for inhibition of cap-dependent protein synthesis. Values are plotted relative to DMSO controls. n=2 technical replicates performed in duplicate.

NIH/3T3 cells = assay: Sulforhodamine B (SRB) cytotoxicity assay; format: cell-based; settings: 40 nM, 4 days
Experimental: In cellula activity of rocaglates. All compounds in the rocaglate collection were assessed for cytotoxic activity towards NIH/3T3 cells as well as the rocaglate-resistant line, eIF4A^em1JP, which harbors an F163L mutation in eIF4A1. This mutation was originally identified following selection for RocA-resistant yeast mutants and F163 was subsequently shown to be critical for stacking with ring C of RocA (2) (FIG. 4). Although eIF4A2 is also a target of rocaglates, eIF4A1 F163L is sufficient to confer resistance to rocaglate-induced translation inhibition and cytotoxicity, likely due to eIF4A1 being the more abundant isoform in NIH/3T3 cells (250-fold higher). […] Lastly, although effective at inhibiting cap-dependent translation in vitro, WGD-57-591 (no activity @ 40 nM) and WGD-57-590 (12% growth inhibition @ 40 nM) performed poorly in this assay.
Sulforhodamine B (SRB) assay. NIH/3T3 cells were seeded at a density of 1000 cells/well in a 96 well format and incubated in presence of each 40 nM compound. After 4 days of culture, cells were washed with PBS, fixed with 50% trichloroacetic (TCA) acid for 1 hour, and then stained with 0.5% sulforhodamine B in 1% acetic acid for 15 min. Plates were then washed 5 times with 1% acetic acid, dried, and the stained wells were resuspended with 10 mM Tris (pH 9) prior to measuring the absorbance at 510 nm using (Spectramax M5, Molecular Devices)
FIGS. 26A-26B. In cellula activity of rocaglates. 26A. Cytotoxicity of rocaglates towards NIH/3T3 (grey circle) and the NIH/3T3 rocaglate-resistant line, eIF4A^em1JP(redtriangle). Cells were exposed to 40 nM compound for 4 days and viability was measured using the SRB assay. n=3±SD. 26B. Rocaglates show different sequence preferences for inhibiting cap-dependent translation in cellula. HEK 293 cells were transfected with 0.5 μg of in vitro synthesized capped (AG)10-FF/HCV/Ren or (UC)10-FF/HCV/Ren mRNA and 1h later exposed to the indicated concentrations of compounds for an additional 6 h, at which time extracts were prepared and luciferase activity measured. n=3 SD.

SMILES	IC50 [1] [nM]	inhibition of cap-dependent translation in vitro (in words) [2]	rank among the top 15 cytotoxic rocaglates (NIH/3T3 cells) [th]
COC(=O)[C@@H]1[C@@H](c2ccccc2)[C@]2(c3ccc(OC)cc3)Oc3cc(OC)cc(OC)c3[C@@]23N=C(C)N[C@@]13O [(−)-9b]	3.5		
COC(=O)[C@@H]1[C@@H](c2ccccc2)[C@]2(c3ccc(OC)cc3)Oc3cc(OC)cc(OC)c3[C@@]23NC(C2CC2)=N[C@@]13O [9n]		comparable potency to SDS-1-021	15
